Earlier results as cited in article PMC11956011, “An Amazing 30-Year Journey around the DABO Family: A Medicinal Chemistry Lesson on a Versatile Class of Non-nucleoside HIV-1 Reverse Transcriptase Inhibitors” (Journal of Medicinal Chemistry, 2025).
Read-outs that look alike come from different tables or passages of the source.

Key:
[1] = test system: HIV-1 NL4-3 wt
[2] = test system: K103N HIV-1 mutant strain; settings: for Fold-resistance K103N (EC50): Fig 10, in brackets
[3] = test system: Y188L HIV-1 mutant strain; settings: for Fold-resistance Y188L (EC50): Fig 10, in brackets
[4] = test system: IRLL98 clinical isolate (K101Q, Y181C, G190A); settings: Fig 9
[5] = test system: HIV-1 RT (WT, recombinant)
[6] = test system: Y181I HIV-1 RT; settings: for Fold-resistance Y181I RT (ID50): Fig 10, in brackets
[7] = test system: mock-infected cells
[8] = test system: HIV-1; settings: for IC50: read-out: IC50 (HIV-1 cytopathic effect in cells)
[9] = test system: Y181C HIV-1 mutant strain; settings: for EC50: Fig 10; for Fold-resistance Y181C (EC50): Fig 10, in brackets
[10] = test system: L100I HIV-1 RT; settings: for ID50: L100I: Fig 10; for Fold-resistance L100I RT (ID50): Fig 10, in brackets
[11] = Fig 9, read-out: EC50: NL4-3 wt
[12] = Fig 10, read-out: EC50: NL4-3 wt
[13] = read-out: EC50 against WT HIV-1

COc1ccc(CCCSc2nc(O)c(C)c(Cc3c(Cl)cccc3Cl)n2)cc1 [compound 78]
EC50 [1, 11]: 0.44 nM
EC50 ([2]; Fig 9): > 1000 nM
EC50 ([3]; Fig 9): > 1000 nM
EC50 [4]: 110 nM
ID50: WT ([5]; Fig 9): 37 nM
ID50: Y181I ([6]; Fig 9): 300 nM
CC50 ([7]; Fig 9): 1000 nM

COc1ccc(CSc2nc(O)c(C)c(Cc3c(F)cccc3F)n2)cc1 [compound 79]
EC50 [1, 11]: 26 nM
EC50 ([2]; Fig 9): 690 nM
EC50 ([3]; Fig 9): 10000 nM
EC50 [4]: 690 nM
ID50: WT ([5]; Fig 9): 7 nM
CC50 ([7]; Fig 9): > 64000 nM

CCc1c(Cc2ccccc2Br)nc(SCc2ccc(OC)cc2)[nH]c1=O [compound 87]
SI ([8]; Fig 9): 717
IC50 ([8]; Fig 9): 230 nM
CC50 ([7]; Fig 9): 165000 nM

CCc1c(Cc2ccccc2Br)nc(SCc2ccc([N+](=O)[O-])cc2)[nH]c1=O [compound 88]
SI ([8]; Fig 9): > 368
IC50 ([8]; Fig 9): 740 nM
CC50 ([7]; Fig 9): > 272000 nM

CCc1c(Cc2cccc(Br)c2)nc(SCc2ccc(OC)cc2)[nH]c1=O [compound 89]
SI ([8]; Fig 9): 718
IC50 ([8]; Fig 9): 280 nM
CC50 ([7]; Fig 9): 201000 nM

CCc1c(Cc2cc(C)cc(C)c2)nc(SCc2ccc(OC)cc2)[nH]c1=O [compound 90]
SI ([8]; Fig 9): > 2642
IC50 ([8]; Fig 9): 120 nM
CC50 ([7]; Fig 9): > 317000 nM

CCc1c(Cc2cc(C)cc(C)c2)nc(SCc2ccc([N+](=O)[O-])cc2)[nH]c1=O [compound 91]
SI ([8]; Fig 9): > 1906
IC50 ([8]; Fig 9): 160 nM
CC50 ([7]; Fig 9): > 305000 nM

CC(=O)c1ccc(Cn2cc(CSc3nc(Cc4c(Cl)cccc4Cl)c(C)c(=O)[nH]3)nn2)cc1 [compound 92]
EC50 ([8]; Fig 9): 3860 nM
SI ([8]; Fig 9): 8

Cc1c(Cc2c(Cl)cccc2Cl)nc(SCc2cn(Cc3ccc(S(N)(=O)=O)cc3)nn2)[nH]c1=O [compound 93]
EC50 ([8]; Fig 9): 3220 nM
SI ([8]; Fig 9): 30

COc1ccc(Cn2cc(CSc3nc(Cc4c(Cl)cccc4Cl)c(C)c(=O)[nH]3)nn2)cc1 [compound 94]
SI ([8]; Fig 9): 6

CCc1c(Cc2c(Cl)cccc2Cl)nc(SCC(=O)c2ccccc2)[nH]c1=O [compound 101]
EC50 [1, 12]: 7 nM
EC50 ([2]; Fig 10): 1200 nM
Fold-resistance K103N (EC50) [2]: 171
EC50 [9]: 46 nM
Fold-resistance Y181C (EC50) [9]: 7
EC50 ([3]; Fig 10): 5000 nM
Fold-resistance Y188L (EC50) [3]: 714
ID50: WT ([5]; Fig 10): 71 nM
ID50: Y181I ([6]; Fig 10): 330 nM
Fold-resistance Y181I RT (ID50) [6]: 5
ID50: L100I [10]: 3540 nM
Fold-resistance L100I RT (ID50) [10]: 50
SI ([8]; Fig 10): > 7429
CC50 ([7]; Fig 10): > 52000 nM

CC(C)c1c(Cc2c(Cl)cccc2Cl)nc(SCC(=O)c2ccccc2)[nH]c1=O [compound 102]
EC50 [1, 12]: 4 nM
EC50 ([2]; Fig 10): 5100 nM
Fold-resistance K103N (EC50) [2]: 1275
EC50 [9]: 110 nM
Fold-resistance Y181C (EC50) [9]: 27
EC50 ([3]; Fig 10): 5500 nM
Fold-resistance Y188L (EC50) [3]: 1375
ID50: WT ([5]; Fig 10): 31 nM
ID50: Y181I ([6]; Fig 10): 16800 nM
Fold-resistance Y181I RT (ID50) [6]: 542
ID50: L100I [10]: 10100 nM
Fold-resistance L100I RT (ID50) [10]: 326
SI ([8]; Fig 10): > 14000
CC50 ([7]; Fig 10): > 56000 nM

CCc1c(Cc2c(F)cccc2Cl)nc(SCC(=O)c2ccc(F)cc2)[nH]c1=O [compound 103]
EC50 [1, 12]: 5 nM
EC50 ([2]; Fig 10): 4140 nM
Fold-resistance K103N (EC50) [2]: 828
EC50 [9]: 1930 nM
Fold-resistance Y181C (EC50) [9]: 386
EC50 ([3]; Fig 10): > 57000 nM
ID50: WT ([5]; Fig 10): 33 nM
ID50: Y181I ([6]; Fig 10): 380 nM
Fold-resistance Y181I RT (ID50) [6]: 12
ID50: L100I [10]: 5600 nM
Fold-resistance L100I RT (ID50) [10]: 170
SI ([8]; Fig 10): > 11400
CC50 ([7]; Fig 10): > 57000 nM

CCc1c(Cc2c(F)cccc2F)nc(SCC(=O)c2ccccc2)[nH]c1=O [compound 104]
EC50 [1, 12]: 12 nM
EC50 ([2]; Fig 10): 1300 nM
Fold-resistance K103N (EC50) [2]: 108
EC50 [9]: 200 nM
Fold-resistance Y181C (EC50) [9]: 17
EC50 ([3]; Fig 10): > 56000 nM
ID50: WT ([5]; Fig 10): 43 nM
ID50: Y181I ([6]; Fig 10): 820 nM
Fold-resistance Y181I RT (ID50) [6]: 19
ID50: L100I [10]: 5400 nM
Fold-resistance L100I RT (ID50) [10]: 126
SI ([8]; Fig 10): 4667
CC50 ([7]; Fig 10): 56000 nM

Cc1c(Cc2c(Cl)cccc2Cl)nc(SCC(=O)Nc2ccc(Cl)cc2)[nH]c1=O [compound 105]
SI ([8]; Fig 10): > 836
CC50 ([7]; Fig 10): > 267000 nM

Cc1c(Cc2c(Cl)cccc2Cl)nc(SCC(=O)Nc2ccc(Br)cc2)[nH]c1=O [compound 106]
SI ([8]; Fig 10): > 1326
CC50 ([7]; Fig 10): > 244000 nM

Cc1c(Cc2c(Cl)cccc2Cl)nc(SCC(=O)Nc2ccc(F)c(F)c2)[nH]c1=O [compound 108]
SI ([8]; Fig 10): > 387
CC50 ([7]; Fig 10): > 266000 nM

COc1ccc(CSc2nc(C(C)c3c(F)cccc3F)c(C)c(=O)[nH]2)cc1 (centres unmarked) [compound 140, 6-[1-(2,6-difluorophenyl)ethyl]-2-[(4-methoxybenzyl)thio]-5-methyl-4(3H)-pyrimidinone]
EC50 [1, 13]: 0.025 nM

Cc1c(C(C)c2c(F)cccc2F)nc(SCc2ccc(C#N)cc2)[nH]c1=O (centres unmarked) [compound 141]
EC50 [1, 13]: 7.8 nM

Cc1c(C(C)c2c(F)cccc2F)nc(SCc2ccc([N+](=O)[O-])cc2)[nH]c1=O (centres unmarked) [compound 142]
EC50 [1, 13]: 3.3 nM

COc1cc(F)c(C(=O)c2ccnc(Nc3ccc(C#N)cc3)n2)c(F)c1 [compound 169]
EC50: Y181C ([9]; Fig 12, DAPY-DABO carbonyl hybrids): no activity

CCN(CC)CCc1cc(=O)[nH]c(SC)n1 [compound 184]
CC50 [7]: 250 µg/mL
